Measured values from patent publication US20050079159A1, “In vivo bioreactors” (Massachusetts Instiute of Technology, priority 2001, published 2005).

Test system: periosteal explants
Assay: In vitro periosteal chondrogenesis, organ culture model in alginate gel suspension
Assay type: cell-based
Details: 10 ng/ml; for Chondrogenesis (H & E; Safranin-O): first two weeks
Description: A further in vitro study of periosteal chondrogenesis has been performed to evaluate an organ culture model using an alginate gel suspension. Briefly, periosteal explants of approximate dimensions 3×3 mm were cultured in an alginate gel suspension and supplemented with either TGF-β1, b-FGF, a combination of the two, or in the absence of growth factors. b-FGF and TGF-β1 were administered at a concentration of 10 ng/ml every two days at each media change for the first week and first two weeks of in vitro culture respectively.
Additionally the cultures were supplemented daily with 50 μg/ml ascorbic acid for the first four weeks of in vitro culture. Results from histological analysis (H & E; and Safranin-O staining) of the explants performed at 1, 3, 6 and 8 week timepoints, were similar to those from the organ culture model utilizing the agarose gel (data not shown). Namely, after a period of 1 week in vitro culture, none of the explants stained positive for glycosaminoglycans using Safranin-O staining. Significant neo-chondrogenesis from the periosteum was not observed for explants cultured in the absence of added growth factors or supplemented with b-FGF alone over the period of 8 weeks. […] Safranin-O stains of typical periosteal explants after 1, 3, 6 and 8 weeks in vitro culture when b-FGF and TGF-β1 were administered for the first week and first two weeks of in vitro culture were observed.

| Substance | Chondrogenesis (H & E; Safranin-O) (after 3 weeks in vitro culture) | Chondrogenesis (H & E; Safranin-O) (after 8 weeks in vitro culture) | Significant neo-chondrogenesis from the periosteum (H & E; Safranin-O) (over the period of 8 weeks in vitro culture) |
| --- | --- | --- | --- |
| TGF-β1: transforming growth factor | apparent | most pronounced |  |
| b-FGF: basic fibroblast growth factor |  |  | not observed |
